One block for each compound: values may come before it.
Key:
Assay type in all cases: biochemical
[1] = biological target: T1, FlgE (flagellar hook protein) (Treponema denticola, UniProt Q9RQB6); assay: ELISA of Lal crosslinking between purified FlgE subunits, dose-response
T1 sequence (Q9RQB6 11-454): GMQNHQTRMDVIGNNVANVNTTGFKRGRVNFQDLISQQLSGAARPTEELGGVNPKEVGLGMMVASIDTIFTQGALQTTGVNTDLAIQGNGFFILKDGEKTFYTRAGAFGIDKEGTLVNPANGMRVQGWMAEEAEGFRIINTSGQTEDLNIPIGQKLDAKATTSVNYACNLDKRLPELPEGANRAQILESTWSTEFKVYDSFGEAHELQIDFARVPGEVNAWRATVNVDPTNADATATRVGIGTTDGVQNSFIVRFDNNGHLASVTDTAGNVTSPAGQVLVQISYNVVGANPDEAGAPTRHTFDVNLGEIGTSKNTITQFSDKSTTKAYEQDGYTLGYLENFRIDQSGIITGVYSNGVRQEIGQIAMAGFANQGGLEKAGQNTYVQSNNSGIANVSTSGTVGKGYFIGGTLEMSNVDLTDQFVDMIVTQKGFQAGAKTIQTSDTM

[2] = biological target: T1, FlgE (flagellar hook protein); assay: ELISA of Lal crosslinking between purified FlgE subunits
[3] = biological target: T1, FlgE (flagellar hook protein); assay: ELISA of Lal crosslinking between purified FlgE subunits, dose-response; remark: listed apart in the source

IC50 [1]: 47.7 µM
Structure (SMILES): Oc1c(Cl)cc(Cl)c(Cl)c1Cc1c(O)c(Cl)cc(Cl)c1Cl [hexachlorophene]

IC50 [2]: 118 µM
Structure (SMILES): C=CCc1ccc(O)c(-c2ccc(O)c(CC=C)c2)c1 [honokiol]

IC50 [3]: 92 µM
Structure (SMILES): COc1cc(C(=O)NS(=O)(=O)c2ccccc2C)ccc1Cc1cn(C)c2ccc(NC(=O)OC3CCCC3)cc12 [zafirlukast]

Source: PMC12906330 (SLAS discovery : advancing life sciences R & D, 2025)
